Where “and” joins values, the source holds several entries; their conditions need not be identical. Equal entries are not always repeated.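 Growth conditions: 96-well plates. Treatment: test compound, 48 hours, 5 concentrations. Analysis: linear interpolation between bracketing concentrations; unreached endpoints set to highest concentration. The concentration for 50% growth inhibition is given as GI50. The concentration for full growth arrest is given as TGI.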

This assay relates to MDA-MB-468 breast. Briefly: NCI-60 cell line screen, 48 h.
On to `COc1ccc(CN2CCCC(C(=O)c3ccc(C(F)(F)F)cc3)C2)c(O)c1` (centres undefined), for which the GI50 is 15.7 µM and the TGI came to 41.6 µM.

With `COc1nc2c(cc1S(=O)(=O)c1ccccc1)CCc1c-2cnn1-c1ccccc1Cl`, the GI50 was 3.7 µM and the TGI is above 100 µM.

Take `C[C@@H]1Cc2c([nH]c3ccccc23)[C@@H](c2c(F)cc(/C=C/C(=O)O)cc2F)N1CC(C)(C)F`: the GI50 is 16.9 µM and the TGI amounted to 53.5 µM.

Regarding `COc1cc2c(c(OC)c1OC)-c1ccc(NCc3ccccc3)c(=O)cc1[C@@H](NC(C)=O)CC2`, the GI50 was 0.319 µM and the TGI was 9.13 µM.

`CS(=O)c1nccc(-c2c(-c3ccc(F)c(OCCc4ccc(F)cc4)c3)nc3sccn23)n1` (centres undefined): the GI50 is 1.73 µM and the TGI was 3.76 µM.

Regarding `COC(=O)c1c2c(c(C)[n+]([O-])c1C)C(=O)C=CC2=O`, the GI50 was 0.946 µM and the TGI amounted to 2.71 µM.

With `CC1=C(CCCOC(=O)NCCCl)C2=C(C)C3(CC3)[C@@](C)(O)C(=O)C2=C1`, the GI50 was 1.83 µM and the TGI was 5.08 µM.

Consider `COc1ccc(CNC(=O)COc2ccc(/C=N/Nc3nc4ccccc4s3)cc2)cc1`, for which the GI50 is 1.9 µM and the TGI came to 6.09 µM.

With `O=C1c2ccccc2C(=O)c2c1ccc1[nH]c(CCl)nc21`, the GI50 was 1.94 µM and the TGI was found to be 4.29 µM.

Take `COc1cccc(-c2nn(-c3ccccc3)cc2-c2ccnc(NCCCNS(=O)(=O)c3cccc(F)c3)c2)c1`: the GI50 was 3.49 µM and the TGI turned out to be 30.4 µM.

Take `Fc1ccc(-c2nn(-c3ccccc3)cc2-c2nc3ccccc3o2)cc1`: the GI50 is 0.249 µM and the TGI is 0.877 µM.

Take `N#Cc1c(O)c2c(c(O)c1C#N)C(=O)c1ccccc1C2=O`: the GI50 was 1.63 µM and the TGI was found to be 6.17 µM.

For `NS(=O)(=O)c1ccc(-n2nc(-c3ccc(Br)cc3)ccc2=O)cc1`, the GI50 was above 10 µM and the TGI is above 10 µM.

As to `COc1ccccc1NC(=O)c1ccc(/C=C/C(=O)c2nccn2C)cc1`, the GI50 was 0.383 µM and the TGI was found to be 0.848 µM.

On to `O=C(Cc1ccc(/C=C/C(=O)c2ncc[nH]2)cc1)Nc1ccc(Cl)cc1`, for which the GI50 is 1.68 µM and the TGI was found to be 6.2 µM.

Consider `CC[n+]1ccc2c(c1)C(=O)c1nccc3c1c-2nc1ccccc13`, for which the GI50 was 0.462 µM and the TGI turned out to be 1.18 µM.

In the case of `O=[n+]1c(CBr)c(CBr)n([O-])c2ccccc21`, the GI50 was 7.38 µM and the TGI came out at 20.4 µM.

As to `N#Cc1nc(-c2ccc(F)cc2)oc1S(=O)(=O)N1CCOCC1`, the GI50 is 1.6 µM and the TGI worked out at 3.27 µM.

As to `Cn1cc(C2=C(c3ccc(OC[C@@H](O)CO)cc3)C(=O)NC2=O)c2ccccc21`, the GI50 is above 25 µM and the TGI is above 25 µM.

For the compound `CN=C1NC(=O)/C(=C/c2ccc3ncccc3c2)S1`, the GI50 was 3.26 µM and the TGI stood at 21.6 µM.

As to `CCOC(=O)c1cc(-c2ccc([N+](=O)[O-])cc2)n(-c2ccc(C(=O)O)c(O)c2)c1C`, the GI50 is 2.8 µM and the TGI is 10.7 µM.

In the case of `CC1=C2[C@@H](CC1)[C@]1(C)O[C@@](C(C)C)(C[C@H]1OC(=O)[C@H](C)O)[C@H]2OC(=O)/C=C/c1ccccc1`, the GI50 was 12.6 µM and the TGI came to 28.3 µM.

With `O=C(O)CCCc1ccc(N(CCCl)CCCl)cc1`, the GI50 is 23.1 µM and the TGI was determined as 99.2 µM.

Regarding `Cn1c(-c2nonc2N)nc2cnccc21`, the GI50 was above 25 µM and the TGI was above 25 µM.

As to `Cc1c(Cl)cccc1Nc1ncccc1C(=O)O`, the GI50 is 84.4 µM and the TGI is above 100 µM.

On to `OC(c1cccc(C(F)(F)F)c1)c1cnccc1NC1CCCCCC1` (centres undefined), for which the GI50 was 1.22 µM and the TGI is 2.76 µM.

As for `O=C(NNc1nc2cc(F)c(F)cc2n2cccc12)c1cccnn1`, the GI50 is 0.408 µM and 0.204 µM; the TGI is 1.5 µM and 0.712 µM.

Regarding `CNC(=O)c1cc(Oc2ccc3c(c2)sc2nc(-c4ccc(N)cc4)cn23)ccn1`, the GI50 was 0.304 µM and the TGI was above 100 µM.

Consider `ClCc1ccccc1CSc1ncnc2nc[nH]c12`, for which the GI50 was 48.9 µM and the TGI was above 60 µM.

For the compound `CCN1CCN(c2nc(NCCNc3ccnc4cc(Cl)ccc34)c3ccccc3n2)CC1`, the GI50 was 0.752 µM and the TGI was found to be 2.34 µM.

On to `C#C[C@]1(O)CC[C@H]2[C@@H]3CC=C4c5sc(-c6cccc(O)c6)nc5CC[C@]4(C)[C@H]3CC[C@@]21C`, for which the GI50 is 2.56 µM and the TGI came out at 6.66 µM.

For the compound `CN1CCN(Cc2ccc(NC(=O)c3cncc(C#Cc4cnc(N)c5ccccc45)c3)cc2C(F)(F)F)CC1`, the GI50 was 0.4 µM and the TGI is 0.918 µM.

The values are drawn from PubChem BioAssay (NCI).
